The values that follow come from US20220127267A1, “THIENO[3,2-B] PYRROLE[3,2-D]PYRIDAZINONE DERIVATIVES AND THEIR USE AS PKM2 DERIVATIVES FOR THE TREATMENT OF CANCER, OBESITY AND DIABETES RELATED DISORDERS” (Agios Pharmaceuticals, Inc., priority 2019, published 2022).

For test [1], the target named is PKR K410E (Homo sapiens, UniProt P30613, K410E). In words: PKR Mutant Assay (K410E), LDH-coupled, absorbance 340 nm. Format: biochemical. The following applies: mutant PKR K410E enzyme activation. The procedure: (§1) PKR (WT or mutant) enzyme stock solution was diluted to prepare a 1.25× Reaction Mix (without ADP). 1 μL of test compound was first added to the wells followed by 40 μL of 1.25× Reaction Mix (without ADP) and incubated at room temperature (25° C.) for 60 min. The reaction was initiated with 10 μL ADP, bringing the final Reaction Mix to 1x, and the reaction progress was measured as changes in absorbance at 340 nm wavelength at room temperature.
PKR K410E, sequence (P30613 whole entry K410E): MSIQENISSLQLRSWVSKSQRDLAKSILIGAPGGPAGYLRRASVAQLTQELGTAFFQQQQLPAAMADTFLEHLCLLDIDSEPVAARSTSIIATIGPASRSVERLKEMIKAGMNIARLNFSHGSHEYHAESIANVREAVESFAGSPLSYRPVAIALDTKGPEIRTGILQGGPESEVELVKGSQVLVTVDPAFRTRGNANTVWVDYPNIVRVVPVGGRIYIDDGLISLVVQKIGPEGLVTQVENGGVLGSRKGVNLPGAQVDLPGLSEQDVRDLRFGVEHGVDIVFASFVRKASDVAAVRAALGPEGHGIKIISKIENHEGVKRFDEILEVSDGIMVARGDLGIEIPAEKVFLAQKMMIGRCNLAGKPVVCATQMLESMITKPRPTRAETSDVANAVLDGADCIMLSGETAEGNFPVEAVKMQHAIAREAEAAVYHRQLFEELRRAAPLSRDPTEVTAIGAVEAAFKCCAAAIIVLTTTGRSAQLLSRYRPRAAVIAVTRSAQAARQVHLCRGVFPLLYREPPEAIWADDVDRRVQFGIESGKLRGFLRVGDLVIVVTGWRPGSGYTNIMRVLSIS
(§2) Test compound preparation: Test compounds were prepared at 50× final concentration in DMSO. 1 to 3 dilutions were made for 11 points (for example 50 μL of 5000 μM compound was added to 100 μL 100% DMSO to yield a 1667 μM, 50 μL of this added to 100 μL DMSO to yield 556 μM, and so forth). The compounds were added to the assay as a 1 to 50 dilution (1 μL in 50 μL) to yield a top concentration of 100 μM, decreasing 3-fold for 11 points.
(§3) Reaction Mix: PKR (1.25-1000 ng/well, 0.025-20 μg/ml depending on the PKR mutant), ADP (0.05-2.3 mM depending on the PKR mutant), PEP (0.031-2 mM depending on the PKR mutant), NADH (180 μM), LDH (0.005 U/μL, Sigma #L3888), 1 mM DTT, 0.03% BSA in 1× Reaction Buffer
(§4) Reaction Buffer: 100 mM KCl, 50 mM Tris pH 7.5, 5 mM MgCl2.

In test [2] the target is PK R510Q (Homo sapiens, UniProt P30613, R510Q). In words: PKR Mutant Assay (R510Q), LDH-coupled, absorbance 340 nm. Format: biochemical. To be noted: mutant PKR R510Q enzyme activation. The procedure: as §1, §2, §3, §4
PK R510Q, sequence (P30613 whole entry R510Q): as the sequence (P30613 whole entry K410E) above, with E410K, R510Q counted along it
The target in test [3] is PKR WT (Homo sapiens, UniProt P30613). The test can be described thus: PKR enzyme assay (WT), LDH-coupled, absorbance 340 nm. The class given is biochemical. The following applies: wild type PKR enzyme activation. How it is done:
as §1, §2, §3, §4

The target in test [4] is PKM2 WT (Homo sapiens, UniProt P14618). In words: PKM2 Assay, LDH-coupled, absorbance 340 nm. Format: biochemical. The following applies: wild type PKM2 enzyme activation. The procedure:
PKM2 enzyme stock solution was diluted to prepare a 1.25× Reaction Mix (without ADP). 1 μL of test compound was first added to the wells followed by 40 μL of 1.25× Reaction Mix (without ADP) and incubated at room temperature (25° C.) for 60 min. The reaction was initiated with 10 μL ADP (0.4 mM final concentration), bringing the final Reaction Mix to 1x, and the reaction progress was measured as changes in absorbance at 340 nm wavelength at room temperature.
as §2
Reaction Mix: PKM2 (5 ng/well, 0.1 μg/ml), ADP (0.4 mM), PEP (0.11 mM), NADH (180 μM), LDH (0.005 U/μL, Sigma #L3888), 1 mM DTT, 0.03% BSA in 1×
as §4

For test [5], the system named is RBCs. The test can be described thus: Cell Based ATP Assay in purified red blood cells (Cell-Titer-Glo). More on the design: species or system human. To be noted: wild type PKR, ATP levels in RBCs, overnight at 37° C.; for AC50: Homo sapiens, Erythrocyte. The procedure:
Fresh blood drawn from healthy volunteers into K2EDTA tubes was collected. Whole blood was pelleted by spinning at 500 g for 10 minutes. The transfusion bag port was cut off Purecell leukocyte reduction neofilter (Fisher NC0267633) one (1) inch above filter. A 10 ml syringe barrel was attached to the remaining cut tubing attached to the neofilter. The plasma layer was removed from the pellet of the whole blood and the pellet was resuspended in 2× volume of phosphate buffered saline (PBS). 9 ml re-suspended blood cell pellet was transferred to a 10 ml syringe that was attached to the neofilter. The whole blood was allowed to gravity flow through filter until all fluid ran through upper tubing into a filter disc. The plunger was added to the syringe. The filter was inverted and air was plunged through the syringe filter system. A new 5 ml syringe was used to remove filtered RBCs from the bag by the syringe port. Purified RBCs were transferred to a 5 ml snap cap tube that had been incubated on ice. The 5 ml snap cap tube was spun at 500 g for 10 minutes at 15 C. Supernatant was aspirated and resuspended in AGAM (1×PBS, 1% glucose, 170 mg/L adenine, 5.25 g/L mannitol) at a density of 4×10^9 cells/mL.
For cell based ATP assays, the compound as described herein was prepared in 100% DMSO as a 10 mM stock. Serial dilutions (1:4) were performed in 96-well V-bottom storage plate and then added 1:100 to 96-well V-bottom plates containing AGAM. 10 μL/well of compound diluted in AGAM was added to black clear bottom assay plates. RBCs were diluted in AGAM media to a density of 1×10^7 cells/mL before added 90 μL/well to black clear bottom assay plates (final compound concentration at 0.1% DMSO concentration). Assay plates were sealed using aluminum foil seals and incubated overnight at 37° C. in a humidified chamber. ATP levels were read out using Cell-Titer-Glo (Promega).

Broadly, the AC50 is the midpoint of the concentration-response curve, whichever way the signal moves. The low end stands for activity at low concentration, the high end for activity only at high concentration.

PKM2 WT, sequence (P14618 whole entry): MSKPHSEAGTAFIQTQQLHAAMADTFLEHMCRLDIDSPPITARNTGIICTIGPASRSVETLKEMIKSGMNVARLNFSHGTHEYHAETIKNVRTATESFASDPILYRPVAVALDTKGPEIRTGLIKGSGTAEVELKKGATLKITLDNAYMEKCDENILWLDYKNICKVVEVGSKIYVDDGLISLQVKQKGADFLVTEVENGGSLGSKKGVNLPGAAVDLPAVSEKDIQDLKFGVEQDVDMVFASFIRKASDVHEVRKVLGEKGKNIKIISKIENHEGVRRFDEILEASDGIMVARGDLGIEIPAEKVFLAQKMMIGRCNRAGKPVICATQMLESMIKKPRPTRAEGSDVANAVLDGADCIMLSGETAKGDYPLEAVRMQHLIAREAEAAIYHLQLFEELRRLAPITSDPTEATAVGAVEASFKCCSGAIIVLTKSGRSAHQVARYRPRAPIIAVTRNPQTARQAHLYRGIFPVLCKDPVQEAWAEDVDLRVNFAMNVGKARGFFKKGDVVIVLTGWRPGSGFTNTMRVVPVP
PKR WT, sequence (P30613 whole entry): as the sequence (P30613 whole entry K410E) above, with E410K counted along it

`COc1cccc(Cn2ncc3c4cc(CO)ccc4n(C)c3c2=O)c1` [Cpd 44]: the AC50 in test [1] was > 800 nM; in test [2], > 800 nM; in test [3], > 800 nM; in test [4], 301 to 800 nM.

For `COc1cccc(Cn2ncc3c4c(C)cccc4n(C)c3c2=O)c1` [Cpd 46], the half-maximal activity concentration (AC50) in test [1] and in test [4] was > 800 nM throughout. In addition, the “PK R510Q AC50” value in test [2] is listed as “No Fit”. Also, the “PKR WT AC50” value in test [3] is “No Fit”.

For `COc1cccc(Cn2ncc3c4oc(C)nc4n(C)c3c2=O)c1` [Cpd 3], the AC50 in test [1] was > 800 nM; in test [2], > 800 nM; in test [3], > 800 nM; in test [4], 301 to 800 nM.

In the case of `CNC(=O)c1ccc2c(c1)c1cnn(Cc3cccc(OC)c3)c(=O)c1n2C` [Cpd 38], the “PKR K410E AC50” value in test [1] was “No Fit”. Besides, the “PK R510Q AC50” value in test [2] is “No Fit”. The “PKR WT AC50” value in test [3] is on record as “No Fit”. Also, the concentration at half-maximal activity (AC50) in test [4] was > 800 nM.

`COc1cccc(Cn2ncc3c4cc(Br)ccc4n(C)c3c2=O)c1` [Cpd 36]: the half-maximal activity concentration (AC50) in test [1] is > 800 nM; in test [2], > 800 nM; in test [3], > 800 nM; in test [4], 301 to 800 nM.

Take `C=Cc1ccc2c3cnn(Cc4cccc(OC)c4)c(=O)c3n(C)c2c1` [Cpd 42]: the AC50 in test [1], in test [2], in test [3] and in test [4] was > 800 nM each time.

As for `COc1cccc(Cn2ncc3c4cc(C(F)(F)F)ccc4n(C)c3c2=O)c1` [Cpd 63], the AC50 in test [1], in test [2], in test [3] and in test [4] was > 800 nM each time.

`COC(=O)c1ccc2c(c1)c1cnn(Cc3cccc(OC)c3)c(=O)c1n2C` [Cpd 37]: the AC50 in test [1], in test [2], in test [3] and in test [4] was > 800 nM in each case.

Turning to `COc1cccc(Cn2ncc3c4n[nH]cc4n(C)c3c2=O)c1` [Cpd 29], the AC50 in test [1], in test [2], in test [3] and in test [4] was > 800 nM each time.

In the case of `C=Cc1ccc2c(c1)c1cnn(Cc3cccc(OC)c3)c(=O)c1n2C` [Cpd 39], the AC50 in test [1], in test [2], in test [3] and in test [4] was > 800 nM throughout.

For the compound `CNC(=O)c1ccc2c3cnn(Cc4cccc(OC)c4)c(=O)c3n(C)c2c1` [Cpd 41], the “PKR K410E AC50” value in test [1] is “No Fit”. Further, in test [2], the “PK R510Q AC50” value was “No Fit”. Besides, the figures for the AC50 in test [3] and in test [4] were > 800 nM and < 300 nM, respectively.

With `CCc1ccc2c3cnn(Cc4cccc(OC)c4)c(=O)c3n(C)c2c1` [Cpd 43], the concentration at half-maximal activity (AC50) in test [1], in test [2], in test [3] and in test [4] was > 800 nM throughout.

Turning to `COc1cccc(Cn2ncc3c4cc(O)ccc4n(C)c3c2=O)c1` [Cpd 48], the AC50 in test [1] is > 800 nM; in test [2], > 800 nM; in test [3] it was > 800 nM; in test [4], 301 to 800 nM.

Regarding `COc1cccc(Cn2ncc3c4sc(Cc5ccccc5)cc4n(C)c3c2=O)c1` [Cpd 4], the AC50 in test [1], in test [2], in test [3] and in test [4] was < 300 nM each time.

Consider `COc1cccc(Cn2ncc3c4cccc(Cc5ccccc5)c4n(C)c3c2=O)c1` [Cpd 59], for which the AC50 in test [1], in test [3] and in test [4] was > 800 nM each time. Further, in test [2], the “PK R510Q AC50” value was “No Fit”.

Take `COc1cccc(Cn2ncc3c4ccc(Cc5ccccc5)cc4n(C)c3c2=O)c1` [Cpd 60]: the AC50 in test [1] is > 800 nM; in test [2] it was 301 to 800 nM; in test [3], > 800 nM; in test [4] it was 301 to 800 nM.

Turning to `COc1cccc(Cn2ncc3c4cc(Cc5ccccc5)ccc4n(C)c3c2=O)c1` [Cpd 34], the AC50 in test [1], in test [2], in test [3] and in test [4] was > 800 nM in each case.

`COc1cccc(Cn2ncc3c4nn(C)cc4n(C)c3c2=O)c1` [Cpd 30]: the AC50 in test [1], in test [2], in test [3] and in test [4] was > 800 nM throughout.

Turning to `COc1cccc(Cn2ncc3c4c(Cc5ccccc5)cccc4n(C)c3c2=O)c1` [Cpd 61], in test [1], the “PKR K410E AC50” value is given as “No Fit”. The “PK R510Q AC50” value in test [2] is reported as “No Fit”. In addition, the “PKR WT AC50” value in test [3] was “No Fit”. Also, the AC50 in test [4] was > 800 nM.

`COc1cccc(Cn2ncc3c4ncccc4n(C)c3c2=O)c1` [Cpd 65]: the AC50 in test [1], in test [2], in test [3] and in test [4] was > 800 nM throughout.

Take `COc1cccc(Cn2ncc3c4c(Br)cccc4n(C)c3c2=O)c1` [Cpd 32]: the AC50 in test [1], in test [2], in test [3] and in test [4] was > 800 nM in each case.

Take `COc1cccc(Cc2ccc3c4sc(C)cc4n(C)c3c2)c1` [Cpd 2]: the “PKR K410E AC50” value in test [1] is “No Fit”. Also, in test [2], the “PK R510Q AC50” value is listed as “No Fit”. In addition, the “PKR WT AC50” value in test [3] is recorded as “No Fit”. For the same compound, the AC50 in test [4] was > 800 nM.

On to `COc1cccc(Cn2ncc3c4cccnc4n(C)c3c2=O)c1` [Cpd 66], for which the AC50 in test [1] was > 800 nM; in test [2] it was 301 to 800 nM; in test [3], > 800 nM; in test [4], 301 to 800 nM.

`COc1cccc(CN2Cc3c(n(C)c4cc(C)sc34)C2=O)c1` [Cpd 1]: the AC50 in test [1], in test [2], in test [3] and in test [4] was > 800 nM in each case.

Regarding `Cn1c2cc(S(=O)(=O)c3ccccc3)ccc2c2cnn(Cc3cccc(C(N)=O)c3)c(=O)c21` [Cpd 54], the AC50 in test [1] is < 300 nM; in test [2] it was < 300 nM; in test [3] it was 301 to 800 nM; in test [5], > 1000 nM.

Regarding `COc1cccc(Cn2ncc3c4cc(C#N)ccc4n(C)c3c2=O)c1` [Cpd 45], the concentration at half-maximal activity (AC50) in test [1] is > 800 nM; in test [2], > 800 nM; in test [3], > 800 nM; in test [4] it was < 300 nM.

As for `Cn1c2cc(Cc3cn[nH]c3)sc2c2cnn(Cc3cccc4[nH]ncc34)c(=O)c21` [Cpd 8], the “PKR K410E AC50” value in test [1] is “No Fit”. For the same compound, the AC50 in test [2] is < 300 nM; in test [3] it was < 300 nM; in test [5], ≤ 1000 nM.

Turning to `COc1cccc(Cn2ncc3c(c(C#CCO)n4cc(C)sc34)c2=O)c1` [Cpd 13], the AC50 in test [1], in test [2] and in test [3] was 301 to 800 nM in each case. In addition, in test [5], the “Cell based ATP assay AC50” value is given as “No Fit”.

As for `Cc1c2c(=O)n(Cc3ccccn3)ncc2c2sc(Cc3cscn3)cn12` [Cpd 16], the AC50 in test [1] is < 300 nM; in test [2] it was < 300 nM; in test [3], < 300 nM; in test [5], ≤ 1000 nM.
